PMC6385020 (Molecules, 2019)
Where “and” joins values, the source holds several entries; their conditions need not be identical. Equal entries are not always repeated. Entries after “also recorded” stand apart in the source; their conditions may differ.

Key:
[1] = system: F-21-T (DNA, G4) GGGTTAGGGTTAGGGTTAGGG; test: FRET-melting; details: 10 mM KCl, 90 mM LiCl; 10 mM lithium cacodylate pH 7.3; 1 µM compound, 0.2 µM DNA
[2] = system: F-myc-T (DNA, G4) TGAGGGTGGGTAGGGTGGGTAA; test: FRET-melting; details: 1 mM KCl, 99 mM LiCl; 10 mM lithium cacodylate pH 7.3; 1 µM compound, 0.2 µM DNA
[3] = system: F-21CTA-T (DNA, G4) AGGGCTAGGGCTAGGGCTAGGG; test: FRET-melting; details: 1 mM KCl, 99 mM LiCl; 10 mM lithium cacodylate pH 7.3; 1 µM compound, 0.2 µM DNA
[4] = system: c-myc* (DNA, G4) TGAGGGTGGGTAGGGTGGGTAA; test: denaturing gel electrophoresis, 3'-exonuclease digestion; details: 100 mM KCl or KClO4; covalent; platination at T20/A21 and G2/A3; 18 h, 32 °C, 10 µM DNA
[5] = system: F-CEB25-WT-T (DNA, G4) AGGGTGGGTGTAAGTGTGGGTGGGT; test: FRET-melting; details: 1 mM KCl, 99 mM LiCl; 10 mM lithium cacodylate pH 7.3; 1 µM compound, 0.2 µM DNA
c-myc G4 [6] = system: c-myc G4; parameters: method as in PMID 21528379; details: cited from earlier work
22AG G4 = system: 22AG G4; parameters: method as in PMID 28825434; details: K+100 buffer, 20 °C; cited from earlier work
21CTA G4 = system: 21CTA G4; parameters: method as in PMID 21528379; details: cited from earlier work
[7] = system: all the tested G4s structures; parameters: method as in PMID 21528379; details: cited from earlier work
[8] = system: c-myc (myc22) (DNA, G4) TGAGGGTGGGTAGGGTGGGTAA; test: G4-FID, thiazole orange displacement; details: 100 mM KCl; 10 mM lithium cacodylate pH 7.3, 1% DMSO; thiazole orange displaced; 1 µM compound, 0.25 µM DNA
[9] = system: 21CTA (DNA, G4) AGGGCTAGGGCTAGGGCTAGGG; test: G4-FID, thiazole orange displacement; details: 100 mM KCl; 10 mM lithium cacodylate pH 7.3, 1% DMSO; thiazole orange displaced; 1 µM compound, 0.25 µM DNA
[10] = system: ds26 (DNA, duplex) CAATCGGATCGAATTCGATCCGATTG; test: G4-FID, thiazole orange displacement; details: 100 mM KCl; 10 mM lithium cacodylate pH 7.3, 1% DMSO; thiazole orange displaced; 1 µM compound, 0.25 µM DNA
[11] = system: 22AG (DNA, G4) AGGGTTAGGGTTAGGGTTAGGG; test: G4-FID, thiazole orange displacement; details: 100 mM KCl; 10 mM lithium cacodylate pH 7.3, 1% DMSO; thiazole orange displaced; 1 µM compound, 0.25 µM DNA
[12] = system: CEB25-WT (DNA, G4) AAGGGTGGGTGTAAGTGTGGGTGGGT; test: G4-FID, thiazole orange displacement; details: 100 mM KCl; 10 mM lithium cacodylate pH 7.3, 1% DMSO; thiazole orange displaced; 1 µM compound, 0.25 µM DNA
c-myc G4 [13] = test: TO G4-FID assay; assay type: binding; details: TO 2 eq, K+100 buffer
Protocol: (§1) For the G4-FID assay, the oligonucleotides were dissolved in K^+100 buffer (10 mM lithium cacodylate buffer pH 7.3, 100 mM KCl, 1% DMSO). Oligonucleotide concentrations were determined on the basis of their absorbance at 260 nm. For the fluorimetric titration, the oligonucleotides were dissolved in K^+100 buffer without DMSO. For the FRET-melting assay, the oligonucleotides were dissolved in K^+1 buffer (10 mM lithium cacodylate buffer pH 7.3, 1 mM KCl, 99 mM LiCl) except for F-21-T. F-21-T was dissolved in K^+10 buffer (10 mM lithium cacodylate buffer pH 7.3, 10 mM KCl, 90 mM LiCl).
(§2) Prior to use, all oligonucleotides were pretreated by heating at 95 °C for 5 min, then rapidly cooled to 4 °C to favor the intramolecular folding by kinetic trapping. Duplex-DNA ds26 was prepared by heating the self-complementary strand at 90 °C for 5 min in K^+1 buffer followed by a slow cooling over 6 h.
(§3) Each G4-FID assay was performed in a 96-well Non-Binding Surface black with black bottom polystyrene microplates (Corning). Every ligand was tested on a line of the microplate, in duplicate. The microplate was filled with (a) K^+100 solution (qs for 200 μL), (b) 10 μL of a solution of pre-folded oligonucleotides (5 μM) and fluorescent probe (TO/TO-PRO-3 (10 μM—2 eq) or PhenDV (7,5 µM—1.5 eq)), and (c) an extemporaneously prepared 5 μM ligand solution in K^+100 buffer (0 to 100 μL) along the line of the microplate, i.e., from column A to column H: 0, 0.125, 0.25, 0.375, 0.5, 0.625, 0.75, 1.0, 1.25, 1.5, 2.0, and 2.5 μM. After 5 min of orbital shaking at 500 rpm, fluorescence is measured using the following experimental parameters: positioning delay of 0.5 s, 20 flashes per well, emission/excitation filters for TO at 485/520, TO-PRO-3 at 620/670, and PhenDV at 355/520 gain adjusted at 80% of the fluorescence from the most fluorescent well (i.e., a well from column A for TO and a well from column H).
(§4) The percentage of TO displacement is calculated from the fluorescence intensity (F), using (1) % TO displacement=1−F/F0 where F0 is the fluorescence from the fluorescent probe bound to DNA without added ligand.
(§5) The PhenDV displacement is calculated from the fluorescence intensity F; F(ligand+probe), which refers to the fluorescence of the probe in presence of the ligand (without G4); and F0, which is the fluorescence without added ligand. The term F(ligand+probe) is necessary as the ligand can quench the fluorescence of the probe. The percentage of displacement is then plotted as a function of the concentration of the added ligand. The DNA affinity was evaluated by the concentration of ligand required to decrease the fluorescence of the probe by 50%, was noted DC50, and was determined after non-linear fitting of the displacement curve.

[14] = system: CEB25-WT minisatellite sequence G4; test: TO G4-FID assay; assay type: binding; details: TO 2 eq, K+100 buffer
Protocol: as §1, §2, §3, §4, §5

[15] = system: 22AG human telomeric sequence G4; test: TO G4-FID assay; assay type: binding; details: TO 2 eq, K+100 buffer
Protocol: as §1, §2, §3, §4, §5

c-myc G4 [16] = test: PhenDV G4-FID assay; assay type: binding; details: PhenDV 1.5 eq, K+100 buffer
Protocol: as §1, §2, §3
(§6) In the case of PhenDV, the fluorescence of the unbound probe is not negligible. The percentage of displacement becomes (2) % PhenDV Displacement=F−F0/Fligand+probe−F0
as §5

[17] = system: CEB25-WT minisatellite sequence G4; test: PhenDV G4-FID assay; assay type: binding; details: PhenDV 1.5 eq, K+100 buffer
Protocol: as §1, §2, §3, §6, §5

[18] = system: 22AG human telomeric sequence G4; test: PhenDV G4-FID assay; assay type: binding; details: PhenDV 1.5 eq, K+100 buffer
Protocol: as §1, §2, §3, §6, §5

[19] = system: G4-DNA structures (F-21-T, F-myc-T, F-21CTA-T, F-CEB25-WT-T); test: FRET-melting assay (ligand-induced stabilization); assay type: binding, human
Protocol: as §1, §2
The stabilization of the compounds with a quadruplex-structure was monitored via FRET-melting assay performed in 96-well plates on a real-time PCR apparatus 7900HT Fast Real-Time PCR System as follows: 5 min at 25 °C and then an increase of 0.5 °C every minute until 95 °C. Each experimental condition was tested and replicated in a volume of 25 μL for each sample. The FRET-melting assay was performed with three dual fluorescently labeled DNA oligonucleotide sequences oligonucleotides. The donor fluorophore was 6-carboxyfluorescein, FAM, and the acceptor fluorophore was 6-carboxytetramethylrhodamine, TAMRA. The 96-well plates (Applied Biosystems) were prepared by aliquoting the annealed DNA (0.2 μM in K^+1 or K^+10 buffer) into each well, followed by 1 μL of the ligand ([…] (5 eq) in DMSO). For competition experiments, duplex competitors were added to 200 nM quadruplex sequences at final concentrations of 3.0 μM (15 eq) and 10.0 μM (50 eq), with a total reaction volume of 25 μL, with the labeled oligonucleotide (0.2 μM) and the ligand (1 μM). Measurements were made with excitation at 492 nm and detection at 516 nm. The change in the melting temperature at 1.0 μm compound concentration, ΔTm (1.0 μM), was calculated from at least two experiments by subtraction of the blank from the averaged melting temperature of each compound (1.0 μM). The final analysis of the data was carried out using Origin Pro 8.6 data analysis.

[20] = system: G4 structures (22AG, c-myc, 21CTA, CEB25-WT); test: TO-PRO-3-G4-FID assay, G4 structures; assay type: binding
Protocol: as §1, §2, §3, §4, §5

[21] = system: 21CTA human telomeric sequence variant G4; assay type: binding; details: K+100 buffer
Protocol: as §1, §2, §3, §4, §5

[22] = system: A2780cis cisplatin-resistant ovarian cancer cell line; test: Cell growth (proliferation), 96 h treatment; assay type: cell-based, human
Protocol: (§7) The ovarian carcinoma cell lines and human normal lung cells were purchased from ATCC and were grown in complete RPMI medium (ovarian) and DMEM (human lung cells) supplemented with 10% fetal calf serum, in the presence of penicillin, streptomycin. The resistance of A2780cis cells to cisplatin was maintained by monthly treatment with 1 µM cisplatin for 4 days. Concentrated stock solutions of complexes were conserved at −20 °C (DMSO/Water) and freshly diluted in water just before the experiments. Cells were treated with various concentrations of platinum complexes at 37 °C under humidity and 5% CO2 conditions for 96 h. Cellular growth was quantified using the particle counter MOXI (VWR).

[23] = system: A2780 ovarian cancer cell line; test: Cell growth (proliferation), 96 h treatment; assay type: cell-based, human
Protocol: as §7

[24] = system: CCD19Lu normal lung cell line; test: Cell growth (proliferation), 96 h treatment; assay type: cell-based, human
Protocol: as §7

[25] = system: 21CTA human telomeric sequence variant G4; assay type: binding; details: PhenDV 1.5 eq, K+100 buffer
Protocol: as §1, §2, §3, §6, §5

SMILES: [Cl-].[Pt+2].c1ccc(-c2cccc(-c3ccccn3)n2)nc1
- ΔTm [1]: < 10 °C
- ΔTm [2]: < 10 °C
- ΔTm [3]: < 10 °C
- binding [4]: yes
- ΔTm [5]: < 10 °C

SMILES: CN1C(=Cc2cc[n+](C)c3ccccc23)Sc2ccccc21 [TO, Thiazole Orange]
- KA (c-myc G4 [6]): 5 × 10^6 M^−1 and 5 × 10^6 (b) M^−1
- KA (22AG G4): 1 × 10^6 (a) M^−1
- KA (21CTA G4): 1 × 10^6 (b) M^−1
- affinity constants towards all the tested G4s structures (Ka) [7]: ~ 10^6 M^−1

SMILES: [Cl-].[Pt+2].c1cc(-c2ccc3ccccc3n2)nc(-c2ccc3ccccc3n2)c1
- % TO displacement [8]: > 80%
- % TO displacement [9]: > 80%
- % TO displacement [10]: < 20%
- % TO displacement [11]: > 80%
- % TO displacement [12]: > 80%

SMILES: F[P-](F)(F)(F)(F)F.[Pt+][C]#Cc1ccccc1.c1ccc(-c2cccc(-c3ccccn3)n2)nc1 [Pt(PA)-tpy, Phenylethylny-(2,6-bis(pyridin-2-yl)pyridine)-platinum(II) Hexafluorophosphate]
- % of TO displacement at 1 µM of ligand (c-myc G4 [13]): 59%
- % of TO displacement at 1 µM of ligand [14]: 37%
- % of TO displacement at 1 µM of ligand [15]: 55%
- % of PhenDV displacement at 1 µM of ligand (c-myc G4 [16]): 2%
- % of PhenDV displacement at 1 µM of ligand [17]: 13%
- % of PhenDV displacement at 1 µM of ligand [18]: 20%
- ∆Tm (ligand-induced stabilization, FRET-melting) [19]: complete lack of stabilization properties; also recorded: no stabilization
- TO-PRO-3 displacement [20]: weak displacement
- % of TO displacement at 1 µM of ligand ([21]; TO 2 eq): 52%
- % of TOPRO3 displacement at 1 µM of ligand ([21]; TO-PRO-3 2 eq): 3%
- IC50 [22]: 50 nM
- Resistance Factor (IC50ratio A2780cis/A2780) [22]: 0.6
- IC50 ([23]; A2780, 96 h treatment): 80 nM
- IC50 in words ([23]; A2780 cell lines): active at nM concentration
- IC50 [24]: 120 nM
- % of PhenDV displacement at 1 µM of ligand [25]: 34%
